Target: human LPAR1 (Homo sapiens, UniProt Q92633)
Experiment: LPAR1 intracellular calcium mobilization assay (antagonist mode)

Chain of human LPAR1 (Q92633 whole entry): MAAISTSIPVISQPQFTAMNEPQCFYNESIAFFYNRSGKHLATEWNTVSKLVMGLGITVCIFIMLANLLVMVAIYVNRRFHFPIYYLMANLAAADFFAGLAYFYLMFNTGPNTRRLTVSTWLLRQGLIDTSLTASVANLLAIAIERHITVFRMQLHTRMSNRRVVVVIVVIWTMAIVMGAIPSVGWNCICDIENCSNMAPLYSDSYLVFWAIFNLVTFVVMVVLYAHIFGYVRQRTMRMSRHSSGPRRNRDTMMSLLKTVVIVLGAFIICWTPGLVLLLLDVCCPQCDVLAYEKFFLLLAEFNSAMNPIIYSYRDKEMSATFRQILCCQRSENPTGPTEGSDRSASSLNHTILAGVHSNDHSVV

Compound	EC50 [nM]
CCS(=O)(=O)Nc1ccc(-c2nnn(C)c2NC(=O)O[C@H](C)c2cccc(F)c2)nc1C [Compound 101, (R)-1-(3-fluorophenyl) ethyl(4-(5-(ethyl-sulfonamido)-6-methyl-pyridin-2-yl)-1-methyl-1H-1,2,3-triazol-5-yl)carbamate]	261
C[C@@H](OC(=O)Nc1c(-c2ccc(NS(C)(=O)=O)c(C(F)F)n2)nnn1C)c1ccccc1 [Compound 150, (R)-1-phenylethyl (4-(6-(difluoromethyl)-5-(methylsulfonamido)pyridin-2-yl)-1-methyl-1H-1,2,3-triazol-5-yl)carbamate]	1050
Cc1nc(-c2nnn(C)c2NC(=O)OC(C)c2cc(F)cnc2Br)ccc1NS(C)(=O)=O (centres unmarked) [Compound 126, 1-(2-bromo-5-fluoropyridin-3-yl)ethyl (1-methyl-4-(6-methyl-5-(methylsulfonamido)pyridin-2-yl)-1H-1,2,3-triazol-5-yl)carbamate]	232
Cc1nc(-c2nnn(C)c2NC(=O)OC(C)c2cc(Cl)nnc2Cl)ccc1NS(C)(=O)=O (centres unmarked) [Compound 134, 1-(3,6-dichloropyridazin-4-yl)ethyl (1-methyl-4-(6-methyl-5-(methylsulfonamido)pyridin-2-yl)-1H-1,2,3-triazol-5-yl)carbamate]	1830
CCn1nnc(-c2ccc(NS(C)(=O)=O)c(C)n2)c1NC(=O)O[C@H](C)c1cccnc1Cl [Compound 157, (R)-1-(2-chloropyridin-3-yl)ethyl (1-ethyl-4-(6-methyl-5-(methylsulfonamido)pyridin-2-yl)-1H-1,2,3-triazol-5-yl)carbamate]	374
Cc1nc(-c2nnn(C)c2NC(=O)OC(C)c2cnc(Cl)nc2Cl)ccc1NS(C)(=O)=O (centres unmarked) [Compound 133, 1-(2,4-dichloropyrimidin-5-yl)ethyl (1-methyl-4-(6-methyl-5-(methylsulfonamido)pyridin-2-yl)-1H-1,2,3-triazol-5-yl)carbamate]	1700
Cc1nc(-c2nnn(C)c2NC(=O)O[C@H](C)c2cccc(F)c2)ccc1NS(=O)(=O)C(C)C [Compound 105, (R)-1-(3-fluoro-phenyl)ethyl(1-methyl-4-(6-methyl-5-((1-methylethyl)sulfonamido)pyridin-2-yl)-1H-1,2,3-triazol-5-yl)carbamate]	278
Cc1nc(-c2nnn(C)c2NC(=O)O[C@H](C)c2cccc(F)c2)ccc1NS(=O)(=O)C1CCC1 [Compound 104, (R)-1-(3-fluoro-phenyl)ethyl(4-(5-(cyclobutane-sulfonamido)-6-methylpyridin-2-yl)-1-methyl-1H-1,2,3-triazol-5-yl)carbamate]	434
Cc1nc(-c2nnn(C)c2NC(=O)OC(C)c2nccnc2Cl)ccc1NS(C)(=O)=O (centres unmarked) [Compound 76, 1-(3-chloropyrazin-2-yl)ethyl (1-methyl-4-(6-methyl-5-(methylsulfonamido)pyridin-2-yl)-1H-1,2,3-triazol-5-yl)carbamate]	929
Cc1nc(-c2nnn(C)c2NC(=O)O[C@H](C)c2cccc(Cl)c2F)ccc1NS(C)(=O)=O [Compound 24, (R)-1-(3-chloro-2-fluorophenyl)ethyl (1-methyl-4-(6-methyl-5-(methylsulfonamido)pyridin-2-yl)-1H-1,2,3-triazol-5-yl)carbamate]	276
COc1nc(-c2nnn(C)c2NC(=O)O[C@H](C)c2cccnc2Cl)ccc1NS(C)(=O)=O [Compound 146, (R)-1-(2-chloropyridin-3-yl)ethyl (4-(6-methoxy-5-(methylsulfonamido)pyridin-2-yl)-1-methyl-1H-1,2,3-triazol-5-yl)carbamate]	580

These reach a lower EC50. Values come first.

EC50 [nM]	Compound
221	CCCn1nnc(-c2ccc(NS(C)(=O)=O)c(C)n2)c1NC(=O)O[C@H](C)c1ccccc1Cl [Compound 12, (R)-1-(2-chlorophenyl)ethyl (4-(6-methyl-5-(methylsulfonamido)pyridin-2-yl)-1-propyl-1H-1,2,3-triazol-5-yl)carbamate]
142	Cc1nc(-c2nnn(C)c2NC(=O)O[C@H](C)c2cc(Cl)cnc2Cl)ccc1NS(C)(=O)=O [Compound 142, (R)-1-(2,5-dichloropyridin-3-yl)ethyl (1-methyl-4-(6-methyl-5-(methylsulfonamido)pyridin-2-yl)-1H-1,2,3-triazol-5-yl)carbamate]
129	C[C@@H](OC(=O)Nc1c(-c2ccc(NS(C)(=O)=O)cn2)nnn1C)c1cccnc1Br [Compound 116, (R)-1-(2-bromopyridin-3-yl)ethyl (1-methyl-4-(5-(methylsulfonamido)pyridin-2-yl)-1H-1,2,3-triazol-5-yl)carbamate]
110	Cc1nc(-c2nnn(C)c2NC(=O)O[C@H](C)c2cc(F)cnc2Cl)ccc1NS(C)(=O)=O [Compound 74, (R)-1-(2-chloro-5-fluoropyridin-3-yl)ethyl (1-methyl-4-(6-methyl-5-(methylsulfonamido)pyridin-2-yl)-1H-1,2,3-triazol-5-yl)carbamate]
79.2	Cc1nc(-c2nnn(C)c2NC(=O)OC(C)c2ccnc(F)c2Cl)ccc1NS(C)(=O)=O (centres unmarked) [Compound 77, 1-(3-chloro-2-fluoropyridin-4-yl)ethyl (1-methyl-4-(6-methyl-5-(methylsulfonamido)pyridin-2-yl)-1H-1,2,3-triazol-5-yl)carbamate]
69.9	Cc1nc(-c2nnn(C)c2NC(=O)O[C@H](C)c2ccccc2C(F)(F)F)ccc1NS(C)(=O)=O [Compound 98, (R)-1-(2-(trifluoromethyl)phenyl)ethyl (1-methyl-4-(6-methyl-5-(methylsulfonamido)pyridin-2-yl)-1H-1,2,3-triazol-5-yl)carbamate]
55.8	Cc1nc(-c2nnn(C)c2NC(=O)O[C@H](CF)c2cc(F)ccc2F)ccc1NS(C)(=O)=O [Compound 45, (S)-1-(2,5-difluorophenyl)-2-fluoroethyl (1-methyl-4-(6-methyl-5-(methylsulfonamido)pyridin-2-yl)-1H-1,2,3-triazol-5-yl)carbamate]
55.4	Cc1nc(-c2nnn(C)c2NC(=O)O[C@H](C)c2ccccc2Cl)ccc1N(C)S(C)(=O)=O [Compound 86, (R)-1-(2-chlorophenyl)ethyl(1-methyl-4-(6-methyl-5-(N-methylmethylsulfonamido)pyridin-2-yl)-1H-1,2,3-triazol-5-yl)carbamate]
50.2	C[C@@H](OC(=O)Nc1c(-c2ccc(NS(C)(=O)=O)cn2)nnn1C)c1csnc1Cl [Compound 119, (R)-1-(3-chloroisothiazol-4-yl)ethyl (1-methyl-4-(5-(methylsulfonamido)pyridin-2-yl)-1H-1,2,3-triazol-5-yl)carbamate]
37.8	Cn1nnc(-c2ccc(NS(C)(=O)=O)cn2)c1NC(=O)OCc1cccc(F)c1 [Compound 21, 3-fluorobenzyl (1-methyl-4-(5-(methylsulfonamido)pyridin-2-yl)-1H-1,2,3-triazol-5-yl)carbamate]
23.8	Cc1nc(-c2nnn(C)c2NC(=O)O[C@H](C)c2ccccc2Cl)ccc1NS(C)(=O)=O [Compound 11, (R)-1-(2-chlorophenyl)ethyl (1-methyl-4-(6-methyl-5-(methylsulfonamido)pyridin-2-yl)-1H-1,2,3-triazol-5-yl)carbamate]
12.3	C[C@@H](OC(=O)Nc1c(-c2ccc(NS(C)(=O)=O)cn2)nnn1C)c1cc(Cl)sc1Cl [Compound 110, (R)-1-(2,5-dichlorothiophen-3-yl)ethyl (1-methyl-4-(5-(methylsulfonamido)pyridin-2-yl)-1H-1,2,3-triazol-5-yl)carbamate]

Source: patent US11548871B2, “Triazole carbamate pyridyl sulfonamides as LPA receptor antagonists and uses thereof” (Gilead Sciences, Inc., priority 2019, dated 2023)
